One sequence from patent US11369665B2, “Anti-inflammatory peptides and composition comprising the same” (GemVax & KAEL Co., Ltd., priority 2012, dated 2022) can be followed below.

Experiment [1] relates to neural stem cells. The experiment is described as follows: Co-treatment amyloid-β and PEP-1: proliferation (BrdU assay). It is filed as cell-based, rat. Conditions: 20 μM amyloid-β protein, co-treated 48 hours. The procedure:
To determine whether PEP 1 has the effect of suppressing the neurotoxicity caused by amyloid-β protein, 20 μM amyloid-β protein and various concentrations of PEP-1 were co-treated for 48 hours. The cell viability and apoptosis were measured using MMT assay, CCK-8 assay, LDH assay and TUNEL assay, and neural stem cell proliferation by BrdU assay.
We also confirmed with BrdU assay that the decreased cell proliferation due to amyloid-β protein was restored when processed with PEP-1 (Refer to FIG. 10).
(Dividing cells build labelled thymidine or BrdU into new DNA.)

Experiment [2] relates to HMGB1. Kind of experiment: Western blot of HMGB1 in amyloid-β damaged neural stem cells. The format is cell-based, rat. The following applies: after the decrease by amyloid-β treatment, FIG. 15J. The text has this:
HMGB1, a non-histone structure protein that binds to DNA, serves diverse roles within a cell; such as stabilizing nucleosome structure and regulating gene expression.
Background: A western blot detects proteins with antibodies after separation by electrophoresis.

Experiment [3] has as its target T1, amyloid-β protein (Homo sapiens, UniProt P05067).
T1 construct: co-treated with 1 μM amyloid beta protein and PEP 1 (0.1, 1 and 10 μM)
The experiment is described as follows: Amyloid-β aggregation. It is filed as biochemical. From the text:
In addition, we investigated the response of PEP-1 to the amyloid-β aggregation.

The subject of experiment [4] is ACSL5 (acyl-coA synthase). Kind of experiment: qPCR array in THP-1 cells. Conditions: LPS 10 ng/mL, 4 μM PEP-1, 4 h. The format is cell-based, human. The protocol: (§1) THP-1 cells (human monocytic leukemia derived cell line) were purchased from ATCC ([…] TYPE CULTURE COLLECTION®, Manassas, Va., USA) and cultured in RPMI-1640 (LIFE TECHNOLOGIES®, Carlsbad, Calif., USA) medium supplemented with 10% FBS (LIFE TECHNOLOGIES®), 1% penicillin/streptomycin (LIFE TECHNOLOGIES®), and 0.05 mM 2-mercaptoethanol (SIGMA-ALDRICH®, St. Louis, Mo., USA) at 37° C. in 5% CO2. THP-1 cells that normally grow in suspension were differentiated into an adherent macrophage-like phenotype in differentiation medium (complete growth medium containing 100 ng/mL phorbol 12-myristate 13-acetate (PMA, SIGMA-ALDRICH®)) for 24 hr. For differentiation, THP-1 cells (3×10^6 cells/plate, ˜95% confluency) were seeded into 10-cm tissue culture plates and incubated in differentiation medium.
(§2) Following differentiation, the macrophage-like THP-1 cells were washed twice using complete growth medium. Then, cells were treated with 10 ng/mL lipopolysaccharide (SIGMA-ALDRICH®) and/or 4 μM PEP-1 for 4 h at 37° C.
(§3) Total RNA was extracted and purified using RNeasy mini kit from QIAGEN® (Valencia, Calif., USA) following manufacturer's protocol. cDNAs were synthesized by reverse transcription using Reverse Transcription System from PROMEGA CORPORATION® (Madison, Wis., USA) according to the manufacturer's protocol.
(§4) Then, cDNA samples from THP-1 cells were used as template for real-time quantitative PCR (qPCR) analysis. For qPCR analysis, RT2 Profiler PCR Array kits were purchased from SABIOSCIENCES®/QIAGEN® (Valencia, Calif. USA). Four different PCR array kits analyzing separate signaling pathways used in the experiment are as follows: human signal transduction pathway finder, human inflammatory cytokines & receptors, human transcription factors, human NF-κB signaling pathway. PCR was performed with SYBR® Green qPCR detection system (QIAGEN®) using a BIO-RAD® (Hercules, Calif., USA) CFX 96 real-time PCR instrument. Thermocycling conditions were: 95° C. for 10 sec; 55° C. for 30 sec; 95° C. for 10 min; 95° C. for 10 sec, 55° C. for 30 sec, and 72° C. for 30 sec for 50 amplification cycles. Data represents the average value from three independent experiments, and % decrease was determined by the target gene expression in LPS treated samples vs. LPS+PEP-1 treated samples. Among 336 genes analyzed, only those showing statistically significant (p<0.05, student's t-test) % decrease were shown in table 7.

The subject of experiment [5] is BCL10. Kind of experiment: qPCR array in THP-1 cells. It is filed as cell-based, human. The following applies: LPS 10 ng/mL, 4 μM PEP-1, 4 h. The protocol: as §1, §2, §3, §4
Background: Real-time PCR tracks product formation cycle by cycle.

For experiment [6], the system named is CCL26/MIP4α. The experiment is described as follows: qPCR array in THP-1 cells. It is filed as cell-based, human. The following applies: LPS 10 ng/mL, 4 μM PEP-1, 4 h. The protocol:
as §1, §2, §3, §4

Experiment [7] concerns CCL4/MIP1β. Kind of experiment: qPCR array in THP-1 cells. The format is cell-based, human. Conditions: LPS 10 ng/mL, 4 μM PEP-1, 4 h. The procedure:
as §1, §2, §3, §4

Experiment [8] concerns CD40Ligand. Kind of experiment: qPCR array in THP-1 cells. It is filed as cell-based, human. Conditions: LPS 10 ng/mL, 4 μM PEP-1, 4 h. The procedure: as §1, §2, §3, §4
In experiment [9] the test system is G-CSF. Kind of experiment: qPCR array in THP-1 cells. It is filed as cell-based, human. Conditions: LPS 10 ng/mL, 4 μM PEP-1, 4 h. The protocol:
as §1, §2, §3, §4

In experiment [10] the test system is GM-CSF. The experiment is described as follows: qPCR array in THP-1 cells. The format is cell-based, human. The following applies: LPS 10 ng/mL, 4 μM PEP-1, 4 h. The protocol:
as §1, §2, §3, §4

Experiment [11] deals with IL10. The experiment is described as follows: qPCR array in THP-1 cells. It is filed as cell-based, human. Conditions: LPS 10 ng/mL, 4 μM PEP-1, 4 h. The procedure:
as §1, §2, §3, §4

Experiment [12] has as its system IL17C. Kind of experiment: qPCR array in THP-1 cells. It is filed as cell-based, human. Conditions: LPS 10 ng/mL, 4 μM PEP-1, 4 h. The protocol: as §1, §2, §3, §4
Experiment [13] concerns ILlRa. Kind of experiment: qPCR array in THP-1 cells. The format is cell-based, human. Conditions: LPS 10 ng/mL, 4 μM PEP-1, 4 h. The protocol:
as §1, §2, §3, §4

The test system of experiment [14] is IkBα. The experiment is described as follows: qPCR array in THP-1 cells. The format is cell-based, human. Conditions: LPS 10 ng/mL, 4 μM PEP-1, 4 h. The procedure: as §1, §2, §3, §4
In experiment [15] the test system is TNFR11B. The experiment is described as follows: qPCR array in THP-1 cells. The format is cell-based, human. Conditions: LPS 10 ng/mL, 4 μM PEP-1, 4 h. The protocol:
as §1, §2, §3, §4

Experiment [16] relates to TNFα. The experiment is described as follows: qPCR array in THP-1 cells. It is filed as cell-based, human. Conditions: LPS 10 ng/mL, 4 μM PEP-1, 4 h. The procedure:
as §1, §2, §3, §4

T1 sequence (P05067 672-713 limits assumed): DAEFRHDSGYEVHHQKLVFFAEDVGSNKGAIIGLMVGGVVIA

Consider EARPALLTSRLRFIPK [PEP-1], for which the “cell proliferation decreased by amyloid-β (BrdU)” value in [1] is given as “restored”. Moreover, the “HMGB1 in the cytoplasm of the nerve cells” value in experiment [2] is “increase of HMGB1”. Moreover, the “aggregation of amyloid-β protein during induction” value in experiment [3] (1 μM amyloid beta protein co-treated with PEP 1 0.1, 1 and 10 μM, FIG. 16A) is “inhibited”. Besides, in [3] (FIG. 16B), the “amyloid-β protein already induced for aggregation” value is recorded as “underwent degradation”. Besides, in experiment [4], the “ACSL5 (acyl-coA synthase) % Decrease by PEP 1 (LPS + PEP-1/LPS), p < 0.05” value is listed as “↓17%”. The “BCL10 % Decrease by PEP 1 (LPS + PEP-1/LPS), p < 0.05” value in experiment [5] is recorded as “↓↓32%”. The “CCL26/MIP4α % Decrease by PEP 1 (LPS + PEP-1/LPS), p < 0.05” value in [6] is on record as “↓↓↓42%”. Also, the “CCL4/MIP1β % Decrease by PEP 1 (LPS + PEP-1/LPS), p < 0.05” value in experiment [7] was “↓22%”. Further, the “CD40Ligand % Decrease by PEP 1 (LPS + PEP-1/LPS), p < 0.05” value in experiment [8] is “↓18%”. In addition, the “G-CSF % Decrease by PEP 1 (LPS + PEP-1/LPS), p < 0.05” value in experiment [9] is given as “↓↓↓48%”. For the same sequence, the “GM-CSF % Decrease by PEP 1 (LPS + PEP-1/LPS), p < 0.05” value in experiment [10] is given as “↓↓29%”. The “IL10 % Decrease by PEP 1 (LPS + PEP-1/LPS), p < 0.05” value in [11] is reported as “↓↓32%”. Further, the “IL17C % Decrease by PEP 1 (LPS + PEP-1/LPS), p < 0.05” value in experiment [12] is reported as “↓↓35%”. Moreover, in [13], the “ILlRa % Decrease by PEP 1 (LPS + PEP-1/LPS), p < 0.05” value was “↓20%”. Besides, the “IkBα % Decrease by PEP 1 (LPS + PEP-1/LPS), p < 0.05” value in experiment [14] is recorded as “↓↓27%”. Besides, the “TNFR11B % Decrease by PEP 1 (LPS + PEP-1/LPS), p < 0.05” value in [15] is on record as “↓↓↓38%”. For the same sequence, the “TNFα % Decrease by PEP 1 (LPS + PEP-1/LPS), p < 0.05” value in [16] was “↓↓34%”.
